Laboratory results as given in US20130316948A1, “GROWTH HORMONE RECEPTOR DEFICIENCY CAUSES A MAJOR REDUCTION IN PRO-AGING SIGNALING, CANCER AND DIABETES IN HUMANS” (UNIVERSITY OF SOUTHERN CALIFORNIA, priority 2011, published 2013).

Assays:
[1] = tested on: pancreatic carcinoma cells; settings: Mol Cancer Ther May 2009 8:1095-1105; cited from earlier work
HMECs = experiment: LDH cytotoxicity assay after H2O2 in epithelial cells incubated in serum; type: cell-based, human; settings: 200 ng/ml IGF-I added to GHRD serum, 700 μM H2O2
human GH = human GH (Homo sapiens, UniProt P01241); experiment: Slot blot of anti-huGH activity in serum from mice immunized with huGH; type: in vivo, mouse; settings: slot blot against immobilized human GH
[2] = Body weight of mice immunized with human Growth Hormone; type: in vivo, mouse; settings: 20 male and 20 female mice, versus time
Excerpt: FIG. 16A provides a plot of body weight of mice immunized with human Growth Hormone (huGH) (20 male and 20 female) versus time.
This figure provides a plot of body weight of mice immunized with human Growth Hormone (huGH) (20 male and 20 female) versus time.

[3] = Short term immunization with human GH before cyclophosphamide: body weight and complete blood count; type: in vivo, mouse; settings: cyclophosphamide i.p., 300 mg/kg, CBC 7-days after CP
Protocol: FIG. 17A provides plots of the body weight of mice with short term immunization (STI) with human GH (half-filled arrowheads) after cyclophosphamide treatment (cyclophosphamide (CP) i.p., 300 mg/kg, indicated by the solid arrowhead) (Sham means treated with buffer and no chemo);
FIG. 17B provides a histogram of the complete blood count (CBC) 7-days after CP treatment (Data are presented as percentage of pre-chemo value);
FIG. 17A provides plots of the body weight of mice with short term immunization (STI) with human GH (half-filled arrowheads) after cyclophosphamide treatment (cyclophosphamide (CP) i.p., 300 mg/kg, indicated by solid arrowheads). FIG. 17B provides a histogram of the complete blood count (CBC) 7-days after CP treatment (Data are presented as percentage of pre-chemo value).

primary glial cells = experiment: 24 hour LDH release from primary glial cells under oxidative damage; type: cell-based
Protocol: FIG. 20 provides a plot of the 24 hour lactate dehydrogenase (LDH) release from the treatment of primary glial cells with the IGF-I inhibitor insulin-like growth factor-binding protein 1 (IGFBP1) and with insulin-like growth factor-binding protein 2 (IGFBP2). […] IGFBP1 is a strong IGF-I inhibtor. Other IGFBPs can even increase IGF-I signaling.

human GH, sequence (P01241 27-217): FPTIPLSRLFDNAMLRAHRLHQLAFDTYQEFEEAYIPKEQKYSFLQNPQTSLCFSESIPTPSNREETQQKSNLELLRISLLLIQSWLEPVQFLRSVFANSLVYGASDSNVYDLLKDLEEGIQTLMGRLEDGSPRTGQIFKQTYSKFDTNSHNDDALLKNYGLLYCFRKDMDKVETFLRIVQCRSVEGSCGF

In the case of “AMG 479: fully human anti-insulin-like growth factor receptor type I monoclonal antibody”, the “Effect on pancreatic carcinoma cells” value [1] is listed as “inhibits the growth and survival of pancreatic carcinoma cells”.

With “IGF-I: insulin like growth factor-I, added at 200 ng/ml to GHRD serum” the “Effect on the higher cytotoxicity seen in GHRD serum” value (HMECs) was “completely reversed”.

In the case of “huGH: human Growth Hormone used to immunize mice to generate inhibitory antibodies against GH”, the “Immunized mice whose serum showed strong anti-huGH activity” value (human GH) is reported as 34 out of 40, the “Body weight of immunized mice” value [2] is reported as “Lower body weight” and the “Effect of immunization on chemotherapy side effects (body weight, CBC)” value [3] is reported as “protective effect against chemotherapy side effects”.

B1: IGFBP1: IGF-I inhibitor insulin-like growth factor-binding protein 1 (protein, UniProt P08833 26-259, looked up)
Insulin-like growth …: APWQCAPCSAEKLALCPPVSASCSEVTRSAGCGCCPMCALPLGAACGVATARCARGLSCRALPGEQQPLHALTRGQGACVQESDASAPHAAEAGSPESPESTEITEEELLDNFHLMAPSEEDHSILWDAISTYDGSKALHVTNIKKWKEPCRIELYRVVESLAKAQETSGEEISKFYLPNCNKNGFYHSRQCETSMDGEAGLCWCVYPWNGKRIPGSPEIRGDPNCQIYFNVQN
For B1, the “Effect on oxidative damage (LDH release)” value (primary glial cells) was “protects them against oxidative damage”.
